“And” between values parts separate entries of the source, which are not always exact repeats. Equal entries are not always repeated.
Tests used:
[1] = Pharmacokinetic profile / in vivo conversion after oral administration to SCID mice (plasma, LC-MS/MS); design: species or system female SCID mice
Method: The pharmacokinetic profile of the phosphate compounds of formula (I) is evaluated in a lipid formulation and in aqueous solution in female SCID mice. This is compared to the pharmacokinetic profile of compounds of formula (I′) in a lipid formulation. More specifically, 4-[{[3-(6-{[(3S)-3-(morpholin-4-ylmethyl)-3,4-dihydroisoquinolin-2(1H)-yl]-carbonyl}-1,3-benzodioxol-5-yl)-5,6,7,8-tetrahydroindolizin-1-yl]carbonyl}(phenyl)-amino]phenyl disodium phosphate (also referred to as the compound of Example 1) was tested and compared to N-(4-hydroxyphenyl)-3-{6-[((3S)-3-(4-morpholinylmethyl)-3,4-dihydro-2(1H)-isoquinolinyl)carbonyl]-1,3-benzodioxol-5-yl}-N-phenyl-5,6,7,8-tetrahydro-1-indolizine carboxamide (also referred to as the drug from Example 1).
The compound of Example 1 is prepared in a mixture of anhydrous ethanol/polyethylene glycol 300/water (10/40/50, v/v/v) intended for administration by the p.o. route. The study is carried out in 2 groups of SCID mice to which the compound of Example 1 is administered under the following conditions: • Group 1: 3 mg/kg p.o. (gavage, 10 mL/kg), • Group 2: 25 mg/kg p.o. (gavage, 10 mL/kg).
Blood samples are taken at the following points in time (3 samples per animal and 3 animals for each point in time): 0.25 hr, 0.5 hr, 1 hr, 2 hrs, 6 hrs and 24 hrs after oral administration.
The compound of Example 1 is also administered by the oral route in an aqueous medium to SCID mice, under the following conditions: • Group 1: 30 mg/kg p.o. dissolved in 1 mM sodium carbonate solution (gavage, 10 mL/kg), • Group 2: 100 mg/kg p.o. in water (gavage, 10 mL/kg).
Blood samples are taken at the following points in time (3 animals for each point in time and 1 sample per animal): 0.25 hr, 0.5 hr, 1 hr, 2 hrs, 4 hrs, 6 hrs and 24 hrs after oral administration.
For all formulations of the compound of Example 1, the blood thereby collected is centrifuged and the plasma is transferred to tubes containing 1M hydrochloric acid. The plasma concentrations of the phosphate compound (prodrug) and its hydroxylated homologue (drug) are determined simultaneously using a method of liquid chromatography coupled with mass spectrometric detection (TFC-LC-MS/MS). The limit of detection for both entities is 0.5 ng/mL.
The drug from Example 1 is prepared in a mixture of anhydrous ethanol/polyethylene glycol 300/water (10/40/50, v/v/v) intended for administration by the p.o. route. The study is carried out in several groups of SCID mice to which the drug from Example 1 is administered under the following conditions: • Group 1: 3 mg/kg p.o. (gavage, 10 mL/kg), • Group 2: 30 mg/kg p.o. (gavage, 10 mL/kg), • Group 3: 25 mg/kg p.o. (gavage, 10 mL/kg), • Group 4: 100 mg/kg p.o. (gavage, 10 mL/kg).
Blood samples are taken at the following points in time (3 animals for each point in time and 3 samples per animal for Groups 1-2 and 1 sample per animal for Groups 3 and 4): • p.o.: before administration and then 0.25 hr, 0.5 hr, 0.75 hr, 1 hr, 2 hrs, 4 hrs, 6 hrs, 8 hrs, 16 hrs and 24 hrs after oral administration at 3 and 30 mg/kg, • p.o.: 0.5 hr, 2 hrs, 6 hrs, 16 hrs and 24 hrs after oral administration at 25 mg/kg and 0.5 hr, 1 hr, 2 hrs, 6 hrs, 16 hrs, 30 hrs and 48 hrs after oral administration at 100 mg/kg.
The plasma from the blood samples collected after administration of the lipid formulations of the drug from the compound of Example 1 are analysed by liquid chromatography coupled with mass spectrometric detection. The limit of quantification of the drug from the compound of Example 1 is less than or equal to 0.5 ng/mL.
Non-compartmental pharmacokinetic analysis is carried out on the mean values of the plasma concentrations of the compounds tested. […]

human Caco-2 cells = assay: In vitro test on human Caco-2 cells, cellular transport A to B; format: in vitro ADME; details: prodrug incubated, 120 minutes; for Yield (experiment yield), the drug after incubation of the prodrug / Fabs (predicted absorbed fraction in humans), the drug after incubation of the prodrug: corresponding drug measured; for Fabs (predicted absorbed fraction in humans), the drug after incubation of the prodrug: 1 or 3 μM; for Yield (experiment yield), compound measured: the prodrug itself: total amount found at the end versus incubated
Method: The cellular transport from A to B (Apical to Basolateral) of the phosphate compounds of formula (I) and the compounds of formula (I′) (corresponding drugs) is studied in human Caco-2 cells. Each compound is deposited apically at 1 or 3 μM (in duplicate) and then incubated for 120 minutes.
Several samples are taken during the experiment; • apically: immediately after deposition (t=0) and at 120 minutes • basolaterally: at the end of the experiment (120 minutes)
The concentrations of the phosphate compound (prodrug) and/or of its hydroxylated homologue (drug) are determined by liquid chromatography coupled with mass spectrometric detection (LC-MS/MS). The limit of quantification for both entities is 2 ng/mL.
The apparent permeability (Papp) and the predicted absorbed fraction (Fabs) in humans are calculated for the prodrug, for the drug after incubation of the prodrug and for the drug after incubation of the drug (Hubatsch et al, Nat Protoc. 2007; 2(9), 2111-2119).
The experiment yield, which corresponds to the ratio (in percent) of the total amount of compound found at the end of the experiment versus that incubated, is also calculated.

Solubility in water = format: physicochemical
Method: The solubility of compounds of formula (I) in water was measured and compared with that of compounds of formula (I′).
More specifically, 4-[{[3-(6-{[(3S)-3-(morpholin-4-ylmethyl)-3,4-dihydroisoquinolin-2(1H)-yl]carbonyl}-1,3-benzodioxol-5-yl)-5,6,7,8-tetrahydroindolizin-1-yl]carbonyl}-(phenyl)amino]phenyl disodium phosphate (also referred to as the compound of Example 1) was tested and compared to N-(4-hydroxyphenyl)-3-{6-[((3S)-3-(4-morpholinylmethyl)-3,4-dihydro-2(1H)-isoquinolinyl)carbonyl]-1,3-benzodioxol-5-yl}-N-phenyl-5,6,7,8-tetrahydro-1-indolizine carboxamide (also referred to as the drug from Example 1).
(§1) The solubilities of the compounds were also measured in a medium buffered to physiological pH (cf. Table 3).

[2] = system: cleaved (activated) form of caspase 3; assay: Quantification of the cleaved form of caspase 3 in vivo (MSD ELISA, RS4;11 xenograft tumour lysates); design: species or system mice (SCID strain); details: sampling time 2 hours, treated versus control mice
Method: The ability of the compounds of formula (I′) to activate caspase 3 is evaluated in a xenograft model of RS4;11 leukaemia cells.
1×10^7 RS4;11 cells are grafted sub-cutaneously into immunosuppressed mice (SCID strain). 25 to 30 days after the graft, the animals are treated orally with the various compounds. After treatment, the tumour masses are recovered and lysed, and the cleaved (activated) form of caspase 3 is quantified in the tumour lysates.
The quantification is carried out using the “Meso Scale Discovery (MSD) ELISA platform” test, which specifically assays the cleaved form of caspase 3. It is expressed in the form of an activation factor corresponding to the ratio between the quantity of cleaved caspase 3 in the treated mice divided by the quantity of cleaved caspase 3 in the control mice.
The ability of the compounds of formula (I) to activate caspase 3 is evaluated in a xenograft model of RS4;11 leukaemia cells in accordance with the protocol given in Example A2.

[3] = Solubility in aqueous medium buffered to physiological pH (phosphate 0.33M, pH 7.4); format: physicochemical; details: phosphate 0.33M, pH = 7.4
Method: as §1

[4] = Example 1 administered 3 mg/kg p.o., lipid formulation
[5] = Example 1 administered 25 mg/kg p.o., lipid formulation
[6] = Example 1 administered 30 mg/kg p.o., aqueous formulation (1 mM sodium carbonate solution)
[7] = Example 1 administered 100 mg/kg p.o., aqueous formulation (in water)

O=C(c1cc(-c2cc3c(cc2C(=O)N2Cc4ccccc4C[C@H]2CN2CCOCC2)OCO3)n2c1CCCC2)N(c1ccccc1)c1ccc(OP(=O)([O-])[O-])cc1.[Na+].[Na+] [Example 1, 4-[{[3-(6-{[(3S)-3-(Morpholin-4-ylmethyl)-3,4-dihydroisoquinolin-2(1H)-yl]carbonyl}-1,3-benzodioxol-5-yl)-5,6,7,8-tetrahydroindolizin-1-yl]carbonyl}(phenyl)amino]phenyl disodium phosphate]
AUCt, compound measured: Example 1 [1, 4]: AUCt (ng · h/mL) = 5 | Tmax, compound measured: Example 1 [1, 4]: Tmax (h) = 0.25 | Cmax, compound measured: Example 1 ([1]; Example 1 administered 3 mg/kg p.o., lipid formulation (ethanol/PEG 300/water 10/40/50)): Cmax (ng/mL) = 16 | AUCt, compound measured: Example 1 [1, 5]: AUCt (ng · h/mL) = 92 | Cmax, compound measured: Example 1 [1, 5]: Cmax (ng/mL) = 244 | Tmax, compound measured: Example 1 [1, 5]: Tmax (h) = 0.25 | AUCt, compound measured: Example 1 [1, 6]: AUCt (ng · h/mL) = 879 | Cmax, compound measured: Example 1 [1, 6]: Cmax (ng/mL) = 391 | Tmax, compound measured: Example 1 [1, 6]: Tmax (h) = 1.0 | AUCt, compound measured: Example 1 [1, 7]: AUCt (ng · h/mL) = 797 | Cmax, compound measured: Example 1 [1, 7]: Cmax (ng/mL) = 359 | Tmax, compound measured: Example 1 [1, 7]: Tmax (h) = 2.0 | Yield (experiment yield), the drug after incubation of the prodrug (human Caco-2 cells): Yield (%) = 42 | Fabs (predicted absorbed fraction in humans), the drug after incubation of the prodrug (human Caco-2 cells; A to B): Fabs (%) = 71 | Papp, compound measured: the prodrug itself (human Caco-2 cells; A to B, deposited apically at 1 or 3 μM): Papp (10^−6 cm/s) = 0.01 | Yield (experiment yield), compound measured: the prodrug itself (human Caco-2 cells): Yield (%) = 0 | solubility in water (Solubility in water): greater than or equal to 10 mg/mL and ≥ 12.6 mM | Activation factor +/− S.E.M. ([2]; Table 2, 50 mg/kg oral): 21.2 +/− 1.3 | Solubility at 10 μM ([3]; 10 μM): Soluble | Solubility at 20 μM ([3]; 20 μM): Soluble | Solubility at 50 μM ([3]; 50 μM): Soluble | Solubility at 100 μM ([3]; 100 μM): Soluble

Cc1c(C(=O)N(c2ccc(OP(=O)([O-])[O-])cc2)c2cc(C#N)n(C)c2)cc(-c2cc(Cl)ccc2C(=O)N2Cc3ccccc3C[C@H]2CN2CCOCC2)n1C.[Na+].[Na+] [Example 21, 4-[{[5-(5-Chloro-2-{[(3S)-3-(morpholin-4-ylmethyl)-3,4-dihydroisoquinolin-2(1H)-yl]carbonyl}phenyl)-1,2-dimethyl-1H-pyrrol-3-yl]carbonyl}(5-cyano-1-methyl-1H-pyrrol-3-yl)amino]phenyl disodium phosphate]
Yield (experiment yield), the drug after incubation of the prodrug (human Caco-2 cells): Yield (%) = 100 | Fabs (predicted absorbed fraction in humans), the drug after incubation of the prodrug (human Caco-2 cells; A to B): Fabs (%) = 19 | Yield (experiment yield), compound measured: the prodrug itself (human Caco-2 cells): Yield (%) = 0.83 | Activation factor +/− S.E.M. ([2]; Table 2, 25 mg/kg oral): 55.2 +/− 6.2

Cc1c(C(=O)N(c2ccc(OP(=O)([O-])[O-])cc2)c2cnn(C)c2)cc(-c2cc(Cl)ccc2C(=O)N2Cc3ccccc3C[C@H]2CN2CCOCC2)n1C.[Na+].[Na+] [Example 24, 4-[{[5-(5-Chloro-2-{[(3S)-3-(morpholin-4-ylmethyl)-3,4-dihydroisoquinolin-2(1H)-yl]carbonyl}phenyl)-1,2-dimethyl-1H-pyrrol-3-yl]carbonyl}(1-methyl-1H-pyrazol-4-yl)amino]phenyl disodium phosphate]
Activation factor +/− S.E.M. ([2]; Table 2, 25 mg/kg oral): 60.5 +/− 4.5

Source: US9115159B2, “Phosphate compounds, a process for their preparation and pharmaceutical compositions containing them” (LES LABORATOIRES SERVIER, priority 2013, dated 2015)
